# Legend:
# RyR2 = biological target: T1, RyR2 (Sus scrofa, UniProt A0A5G2R1W3); assay: [3H]ryanodine binding to cardiac SR (CSR) vesicles; format: biochemical, pig
# T1 construct: from tissue; host or cells: porcine cardiac left ventricle, crude SR vesicles
# Method: (§1) Crude sarcoplasmic reticulum membrane vesicles were isolated from porcine longissimus dorsi muscle and porcine cardiac left ventricle tissue by differential centrifugation of homogenized tissue, as established previously ([65]). Skeletal heavy SR (HSR) vesicles, which are enriched with RyR1, were isolated by fractionation of crude skeletal SR vesicles using a discontinuous sucrose gradient, in accordance with our published work ([65]). All vesicles were flash-frozen and stored at −80 °C.
# (§2) In 96-well plates, skeletal SR membranes (HSR, 1 mg/ml) and cardiac SR membranes (CSR, 3 mg/ml) were preincubated with 1% DMSO or hit compound for 30 min at 22 °C in a solution containing 150 mM KCl, 5 mM GSH, 1 μg/ml Aprotinin/Leupeptin, 1 mM EGTA, and 65 μM or 1.02 mM CaCl2 (as determined by MaxChelator to yield 30 nM or 30 μM of free Ca^2+, respectively), 0.1 mg/ml of BSA, and 20 mM K-PIPES (pH 7.0). Nonspecific [^3H]ryanodine binding to SR was assessed by addition of 40 μM nonradioactively labeled ryanodine. Maximal [^3H]ryanodine binding was assessed by addition of 5 mM adenylyl-imidodiphosphate (AMP-PNP), and in the case of CSR, 20 mM caffeine was added. These control samples were each loaded over four wells per plate. Binding of [^3H]ryanodine (7.5 and 10 nM for CSR and HSR, respectively) was determined following a 3 h incubation at 37 °C and filtration through grade GF/B glass microfiber filters (Brandel Inc) using a Brandel Harvester. In 4 ml of Ecolite scintillation cocktail (MP biomedicals), [^3H]ryanodine retained on the filter was counted using a Beckman LS6000 scintillation counter.
# α2-adrenergic receptors = test system: α2-adrenergic receptors; design: method as in PMID 7969082; details: cited from earlier work
# mouse RyR2 NTR = biological target: T2, mouse RyR2 NTR (Mus musculus, UniProt E9Q401, K30C/K441C, form not given); assay: FLT-FRET dose-response with AC-NTR biosensor; format: binding
# T2 sequence (E9Q401 1-547 K30C/K441C): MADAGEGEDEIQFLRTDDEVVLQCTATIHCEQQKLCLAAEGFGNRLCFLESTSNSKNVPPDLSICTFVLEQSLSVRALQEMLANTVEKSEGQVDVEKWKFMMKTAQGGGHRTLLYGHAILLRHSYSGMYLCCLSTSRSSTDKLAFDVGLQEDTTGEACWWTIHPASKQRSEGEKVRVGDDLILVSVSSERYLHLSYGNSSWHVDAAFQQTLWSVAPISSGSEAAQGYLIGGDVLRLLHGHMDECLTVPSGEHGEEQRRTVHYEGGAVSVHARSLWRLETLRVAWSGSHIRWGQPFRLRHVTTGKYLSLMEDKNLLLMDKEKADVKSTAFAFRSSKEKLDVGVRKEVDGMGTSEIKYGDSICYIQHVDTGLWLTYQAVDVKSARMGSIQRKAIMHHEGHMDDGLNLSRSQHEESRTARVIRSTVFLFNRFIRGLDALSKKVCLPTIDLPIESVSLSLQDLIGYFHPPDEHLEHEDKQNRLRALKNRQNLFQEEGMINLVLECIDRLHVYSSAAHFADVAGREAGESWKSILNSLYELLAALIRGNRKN
# Text: The NTR of mouse RyR2 (residues 1–547) was cloned and expressed as previously described ([27]). The DNA construct contains a 6×His tag, a maltose-binding protein (MBP) tag, and a tobacco etch virus (TEV) protease cleavage site. The seven native solvent-exposed cysteine residues were substituted with alanine residues, and two constructs were engineered with Cys substitutions at surface residues R383 and K441 (in the B and C domains, respectively; termed BC) and at K30 and K441 (in the A and C domains, respectively; termed AC) for labeling with spectroscopic probes such as appropriate donor–acceptor fluorophores for FRET (for the purpose of this report, these are considered the WT forms of AC and BC). A variant of the BC construct corresponding to the disease-associated mutant (R420Q) was also prepared. For this site-directed mutagenesis work, we used the QuikChange (Stratagene) and Phusion High-Fidelity PCR (Thermo Fisher Scientific) kits. The WT-NTR, R420Q-NTR, AC- and BC-NTR, AC- and BC-R420Q-NTR protein constructs were expressed in Escherichia coli Rosetta (DE3) pLacI cells at 18 °C and purified with a protocol adapted from previously published work ([26]). An amylose column was first applied after the cells were lysed by ultrasonication. The protein in the elution was then cleaved using TEV protease. The cleaved crude protein went through the second amylose column to separate from the MBP and then followed by a Superdex S-200 size exclusion column in a buffer consisting of 250 mM KCl, 10 mM HEPES, and 14 mM β-mercaptoethanol (pH 7.4). The NTR protein (3 μM) was then incubated in 10 mM HEPES, 250 mM KCl (pH 7.4, 2 h, 21 °C) with the fluorescent probes Alexa Fluor 488 maleimide (AF488, donor; 40 μM) and Alexa Fluor 568 maleimide (AF568, acceptor; 60 μM). The maleimide of the dye reacts with the thiols the Cys residues engineered into NTR, forming a covalently labeled protein. The Alexa dyes were added last to the reaction mixture, from 10 mM DMSO stock solutions. This reaction is not selective to one site (K30C or K441C), and we anticipate that there is a mixed population with K30C or K441C labeled with either AF488 (donor) or AF568 (acceptor). We focused on maximizing the fraction containing donor–acceptor pairs, thus maximizing FRET efficiency and the precision for detecting a change in structure as an indication that a compound interacts with the NTR biosensor. The labeling efficiency was determined by comparing the molar concentration of the bound dye, determined from UV-Vis absorbance, to the protein concentration, determined from gel densitometry. Essentially complete labeling was confirmed from electrospray ionization mass spectrometry. CD spectra of the WT-NTR and mutant R420Q-NTR constructs before and after labeling were recorded using a JASCO J-815 CD spectrometer (JASCO), confirming similar folding (Fig. S1).
# The 1536-well assay plates were prepared as described in our previous reports ([21]). The LOPAC (Sigma-Aldrich) collection received in 96-well plates was reformatted into 384-well polypropylene intermediate plates (Greiner Bio-One) using a multichannel liquid handler, BioMek FX (Beckman Coulter), then transferred to 384-well Echo Qualified source plates (Labcyte Inc). Assay plates were prepared as previously described ([20]). On screening days, these plates were thawed out and were loaded with labeled NTR (5 μl, 20 nM final concentration) using a Multidrop Combi automated sample dispenser.
# HTS measurements were conducted in a prototype top-read FLT plate reader (FLT-PR, Fluorescence Innovations, Inc), which reads each 1536-well plate in ∼3 min ([63], [64]). AF488 donor fluorescence was excited with a 473 nm microchip laser from Concepts Research Corporation, and the emission signal was split into two channels by a dichroic mirror and acquired with 517 ± 10 nm (channel 1) and 535 ± 7 nm band-pass filters (channel 2) (Semrock). […]
# RyR1 [1] = biological target: T3, RyR1 (Sus scrofa, UniProt P16960); assay: [3H]ryanodine binding to skeletal SR (HSR) vesicles; format: biochemical, pig; details: for EC50: EC50, [3H]ryanodine binding, skeletal HSR, Table S4
# T3 construct: from tissue; host or cells: porcine longissimus dorsi muscle, heavy SR vesicles
# Method: as §1, §2
# RyR1 [2] = biological target: T4, RyR1 (Rattus norvegicus, UniProt F1LMY4); assay: t-tubule Ca2+ measurement of RyR1 leak in skinned skeletal muscle fibers; format: cell-based; details: 10 μM FA or 1 mM tetracaine, [Ca2+]cyto 200 nM
# T4 construct: from tissue; host or cells: Wistar rat extensor digitorum longus (EDL), mechanically skinned single fibres
# Method: All experimental methods using rodents were approved by the Animal Ethics Committees at The University of Queensland and were performed in accordance with the relevant guidelines and regulations. Five-month-old Wistar rats (UQ Biological Resources) were euthanized by asphyxiation via CO2 exposure, and the extensor digitorum longus (EDL) was rapidly excised. Once dissected, muscles were pinned to Sylgard set in a Petri dish containing paraffin oil.
# Bundles of fibers were isolated and exposed to an internal solution containing rhod-5N, as described previously ([47]). After 15 min incubation, single skeletal muscle fibers were mechanically skinned and mounted in a custom-made chamber. […] For tracking Ca^2+ movements across the t-system membrane, images were continuously recorded in xyt mode with an aspect ratio of 256 × 512, with the long aspect of the image parallel with that of the preparation. Temporal resolution of imaging in this mode where the fluorescence signal was within the borders of the fiber was 0.8 s.
# T-system rhod-5N fluorescence was converted to [Ca^2+]t-sys as previously described ([47]). To determine the effect of RyR modulators on the RyR Ca^2+ leak, isolated mechanically skinned fibers were continuously imaged as described above, to obtain a record of t-system rhod-5N fluorescence changes over time as the cytoplasmic solution bathing the fiber was changed. […]
# [3] = test system: rat skeletal muscle fibers; assay: Electrically evoked Ca2+ transients in skinned skeletal muscle fibers; format: cell-based; details: 10 μM FA or 1 mM tetracaine, 1 Hz
# Text: Mechanically skinned fibers were isolated, mounted in a custom chamber, and bathed in a resting physiological solution containing rhod-2, as previously described ([21]). The Ca^2+-sensitive dye rhod-2 was used to track cytosolic Ca^2+ transients when exposed to electrical stimulation. Field pulses at 1 Hz frequency and 4 ms in duration were applied across platinum electrodes parallel to the long axis of the fiber. Imaging for electrical stimulation experiments was in xt mode, at a rate of 2 ms.line^−1. DMSO vehicle (0.01%), FA (10 μM), and tetracaine were added to the physiological solution. Each treatment was applied precisely at the seventh successive Ca^2+ transient.
# T3 sequence (P16960 whole entry): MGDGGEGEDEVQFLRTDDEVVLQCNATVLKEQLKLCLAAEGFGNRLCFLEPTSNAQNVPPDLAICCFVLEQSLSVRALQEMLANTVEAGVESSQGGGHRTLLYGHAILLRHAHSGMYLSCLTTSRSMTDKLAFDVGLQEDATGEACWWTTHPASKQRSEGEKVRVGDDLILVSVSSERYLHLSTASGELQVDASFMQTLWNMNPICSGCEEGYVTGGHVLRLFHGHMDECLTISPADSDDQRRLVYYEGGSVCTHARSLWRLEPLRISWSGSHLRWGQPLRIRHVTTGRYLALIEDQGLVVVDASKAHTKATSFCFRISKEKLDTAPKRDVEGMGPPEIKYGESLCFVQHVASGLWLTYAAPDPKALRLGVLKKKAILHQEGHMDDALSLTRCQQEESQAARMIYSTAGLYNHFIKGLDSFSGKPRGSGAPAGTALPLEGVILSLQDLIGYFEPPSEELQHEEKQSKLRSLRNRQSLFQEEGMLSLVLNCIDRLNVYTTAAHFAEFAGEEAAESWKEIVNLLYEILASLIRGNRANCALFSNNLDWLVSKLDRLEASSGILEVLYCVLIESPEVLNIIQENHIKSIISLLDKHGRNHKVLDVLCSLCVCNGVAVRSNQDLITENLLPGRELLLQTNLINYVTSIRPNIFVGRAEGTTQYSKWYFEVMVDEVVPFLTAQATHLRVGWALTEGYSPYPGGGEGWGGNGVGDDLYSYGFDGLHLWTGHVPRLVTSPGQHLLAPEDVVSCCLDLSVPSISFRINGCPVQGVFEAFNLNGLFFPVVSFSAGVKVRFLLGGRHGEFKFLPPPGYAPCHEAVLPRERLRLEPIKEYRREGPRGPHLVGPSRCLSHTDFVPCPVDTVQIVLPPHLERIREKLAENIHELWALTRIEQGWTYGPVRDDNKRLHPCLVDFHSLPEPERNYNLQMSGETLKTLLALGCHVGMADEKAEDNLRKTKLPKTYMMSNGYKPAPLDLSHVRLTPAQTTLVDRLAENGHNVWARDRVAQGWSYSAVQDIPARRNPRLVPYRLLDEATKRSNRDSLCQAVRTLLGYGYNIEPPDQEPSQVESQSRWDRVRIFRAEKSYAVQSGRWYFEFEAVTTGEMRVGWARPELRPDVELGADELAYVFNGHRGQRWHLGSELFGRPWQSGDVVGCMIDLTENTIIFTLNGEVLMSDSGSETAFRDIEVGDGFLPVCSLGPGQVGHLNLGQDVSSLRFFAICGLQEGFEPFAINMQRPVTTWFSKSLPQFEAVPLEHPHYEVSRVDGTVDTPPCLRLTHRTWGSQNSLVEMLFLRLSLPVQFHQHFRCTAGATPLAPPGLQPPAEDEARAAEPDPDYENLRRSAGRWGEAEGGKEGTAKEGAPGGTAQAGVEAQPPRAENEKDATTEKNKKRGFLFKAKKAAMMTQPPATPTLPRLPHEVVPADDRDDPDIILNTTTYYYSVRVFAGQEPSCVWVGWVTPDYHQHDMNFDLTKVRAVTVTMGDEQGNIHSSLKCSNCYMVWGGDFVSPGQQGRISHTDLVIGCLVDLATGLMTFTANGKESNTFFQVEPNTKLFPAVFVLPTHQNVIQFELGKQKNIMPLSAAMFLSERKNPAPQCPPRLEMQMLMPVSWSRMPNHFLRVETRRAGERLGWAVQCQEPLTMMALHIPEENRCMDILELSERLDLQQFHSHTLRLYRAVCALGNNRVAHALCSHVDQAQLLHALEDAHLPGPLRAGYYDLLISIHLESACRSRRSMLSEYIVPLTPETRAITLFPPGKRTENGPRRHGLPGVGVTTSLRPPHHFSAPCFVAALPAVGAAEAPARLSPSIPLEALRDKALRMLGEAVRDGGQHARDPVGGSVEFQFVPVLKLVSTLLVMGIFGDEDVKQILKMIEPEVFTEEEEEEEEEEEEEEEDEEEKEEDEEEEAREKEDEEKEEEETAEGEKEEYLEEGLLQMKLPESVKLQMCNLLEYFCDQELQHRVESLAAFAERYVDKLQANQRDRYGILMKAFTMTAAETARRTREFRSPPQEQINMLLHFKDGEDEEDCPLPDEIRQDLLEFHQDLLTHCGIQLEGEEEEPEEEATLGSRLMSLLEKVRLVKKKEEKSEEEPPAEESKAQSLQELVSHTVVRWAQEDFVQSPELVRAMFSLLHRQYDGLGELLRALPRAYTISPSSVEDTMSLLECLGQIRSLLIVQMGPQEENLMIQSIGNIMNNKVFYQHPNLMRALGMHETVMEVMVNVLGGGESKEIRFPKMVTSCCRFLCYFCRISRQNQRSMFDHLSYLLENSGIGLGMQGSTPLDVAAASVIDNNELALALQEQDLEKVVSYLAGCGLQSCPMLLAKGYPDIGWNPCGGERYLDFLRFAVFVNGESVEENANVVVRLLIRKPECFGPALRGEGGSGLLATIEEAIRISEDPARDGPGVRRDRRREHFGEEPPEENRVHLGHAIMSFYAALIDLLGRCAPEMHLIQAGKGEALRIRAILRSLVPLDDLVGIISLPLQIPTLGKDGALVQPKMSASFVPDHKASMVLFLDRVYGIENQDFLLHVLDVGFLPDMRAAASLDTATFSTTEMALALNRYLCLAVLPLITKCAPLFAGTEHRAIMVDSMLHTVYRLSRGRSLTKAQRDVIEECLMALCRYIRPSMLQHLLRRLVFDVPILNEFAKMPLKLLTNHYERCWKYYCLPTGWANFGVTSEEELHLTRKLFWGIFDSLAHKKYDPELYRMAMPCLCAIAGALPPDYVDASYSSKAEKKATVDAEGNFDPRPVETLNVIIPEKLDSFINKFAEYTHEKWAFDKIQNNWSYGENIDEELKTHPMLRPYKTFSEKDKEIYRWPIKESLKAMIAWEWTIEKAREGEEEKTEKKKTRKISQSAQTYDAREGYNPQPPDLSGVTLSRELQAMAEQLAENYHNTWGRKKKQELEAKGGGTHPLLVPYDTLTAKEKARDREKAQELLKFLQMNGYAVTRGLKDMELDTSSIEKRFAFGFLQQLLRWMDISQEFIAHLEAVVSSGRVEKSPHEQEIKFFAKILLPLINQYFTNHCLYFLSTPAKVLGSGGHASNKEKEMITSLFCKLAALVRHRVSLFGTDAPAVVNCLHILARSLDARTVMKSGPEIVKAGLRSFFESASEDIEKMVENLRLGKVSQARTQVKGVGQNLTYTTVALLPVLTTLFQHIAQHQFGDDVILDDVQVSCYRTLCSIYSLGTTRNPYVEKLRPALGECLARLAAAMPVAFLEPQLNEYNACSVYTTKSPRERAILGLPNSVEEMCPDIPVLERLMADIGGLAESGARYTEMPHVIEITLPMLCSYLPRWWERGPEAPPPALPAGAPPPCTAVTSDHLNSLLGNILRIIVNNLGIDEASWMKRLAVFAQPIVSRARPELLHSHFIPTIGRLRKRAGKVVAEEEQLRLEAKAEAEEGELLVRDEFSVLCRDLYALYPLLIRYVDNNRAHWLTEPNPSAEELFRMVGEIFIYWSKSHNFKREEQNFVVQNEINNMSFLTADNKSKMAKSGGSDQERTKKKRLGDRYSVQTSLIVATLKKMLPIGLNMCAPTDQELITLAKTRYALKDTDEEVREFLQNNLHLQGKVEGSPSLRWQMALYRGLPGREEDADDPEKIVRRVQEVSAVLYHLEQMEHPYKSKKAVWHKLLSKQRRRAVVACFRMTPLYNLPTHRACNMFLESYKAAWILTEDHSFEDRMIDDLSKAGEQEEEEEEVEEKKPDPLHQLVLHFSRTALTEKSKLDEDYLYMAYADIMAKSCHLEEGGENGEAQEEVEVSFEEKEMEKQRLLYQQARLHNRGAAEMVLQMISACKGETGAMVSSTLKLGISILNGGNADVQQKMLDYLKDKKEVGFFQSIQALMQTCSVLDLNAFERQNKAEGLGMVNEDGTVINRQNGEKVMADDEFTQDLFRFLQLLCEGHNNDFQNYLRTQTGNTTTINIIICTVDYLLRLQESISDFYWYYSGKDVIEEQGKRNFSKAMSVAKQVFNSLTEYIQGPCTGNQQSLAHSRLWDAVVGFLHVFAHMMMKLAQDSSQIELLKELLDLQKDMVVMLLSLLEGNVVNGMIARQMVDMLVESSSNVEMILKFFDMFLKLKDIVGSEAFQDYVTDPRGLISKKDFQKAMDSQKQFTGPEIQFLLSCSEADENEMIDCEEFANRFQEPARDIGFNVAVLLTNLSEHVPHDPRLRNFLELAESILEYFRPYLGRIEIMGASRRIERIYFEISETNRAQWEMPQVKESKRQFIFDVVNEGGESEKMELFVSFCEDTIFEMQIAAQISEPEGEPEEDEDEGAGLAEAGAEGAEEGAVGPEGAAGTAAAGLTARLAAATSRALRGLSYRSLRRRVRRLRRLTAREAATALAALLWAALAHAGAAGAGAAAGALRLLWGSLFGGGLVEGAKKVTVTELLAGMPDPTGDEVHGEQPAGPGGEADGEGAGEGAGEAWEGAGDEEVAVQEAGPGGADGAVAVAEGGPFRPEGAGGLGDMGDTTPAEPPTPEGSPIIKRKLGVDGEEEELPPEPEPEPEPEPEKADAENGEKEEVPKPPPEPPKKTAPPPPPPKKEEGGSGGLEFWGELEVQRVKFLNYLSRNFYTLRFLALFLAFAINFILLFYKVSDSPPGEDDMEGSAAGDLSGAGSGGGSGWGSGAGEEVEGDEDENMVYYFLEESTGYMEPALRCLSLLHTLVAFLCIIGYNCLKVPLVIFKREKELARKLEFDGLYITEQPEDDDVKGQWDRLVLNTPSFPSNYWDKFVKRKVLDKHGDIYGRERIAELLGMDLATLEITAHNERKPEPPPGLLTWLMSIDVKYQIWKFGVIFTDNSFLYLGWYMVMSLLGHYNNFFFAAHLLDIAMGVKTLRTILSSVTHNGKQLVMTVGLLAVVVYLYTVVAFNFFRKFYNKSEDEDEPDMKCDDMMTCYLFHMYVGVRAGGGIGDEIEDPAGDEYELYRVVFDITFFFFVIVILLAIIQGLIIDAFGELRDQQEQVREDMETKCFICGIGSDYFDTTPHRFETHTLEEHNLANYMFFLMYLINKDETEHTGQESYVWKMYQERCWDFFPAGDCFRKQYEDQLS
SMILES,EC50 (RyR2) [nM],"effect on [3H]ryanodine binding to RyR2 (RyR2; cardiac SR, 30 μM Ca2+)",binding affinity for α2-adrenergic receptors (α2-adrenergic receptors),"ΔFLT (mouse RyR2 NTR; AC-NTR biosensor, 0 to 100 μM, CPNQ/corbadrine decrease FLT, FA/tacrolimus increase FLT)",EC50 relative to CPNQ (fold higher) (mouse RyR2 NTR; FRET dose-response) [fold],"EC50 (mouse RyR2 NTR; read-out: EC50, FRET dose-response, AC-NTR biosensor, Hill fit, Table S4) [nM]",EC50 (RyR1 [1]; [Ca2+] 30 nM) [nM],"EC50 (RyR1 [1]; [Ca2+], 30 µM) [nM]","maximum inhibitory effect on [3H]ryanodine binding (RyR1 [1]; skeletal SR, 30 nM Ca2+) [%]","effect on [3H]ryanodine binding to RyR1 (RyR1 [1]; skeletal SR, 30 μM Ca2+)",steady-state [Ca2+]t-sys (RyR1 leak) (RyR1 [2]),electrically induced Ca2+ transient amplitude [3]
"C[C@H](N)[C@H](O)c1ccc(O)c(O)c1 [corbadrine, 4-[(1R,2S)-2-amino-1-hydroxypropyl]benzene-1,2-diol]",10,slight activation at high concentrations,very high binding affinity,≈ 0.35 ns,~3,3600,20,15300,~70,strongly increased,–,–
CCCCNc1ccc(C(=O)OCCN(C)C)cc1 [tetracaine],–,–,–,–,–,–,–,–,–,–,full RyR inhibition,significantly decreased

# Reference: publication PMC8689225, “Cardiac ryanodine receptor N-terminal region biosensors identify novel inhibitors via FRET-based high-throughput screening” (The Journal of Biological Chemistry, 2021)
